In PMC7355684 (Pharmaceutics, 2020):
Entries after “also recorded” stand apart in the source; their conditions may differ. Like-named read-outs stand apart in the source and are kept apart here. Where a SMILES comes first, the peptide text is derived from it. The star is where a group is joined. Daunorubicin(13-NOCH2CO) = COc1cccc2c1C(=O)c1c(O)c3c(c(O)c1C2=O)C[C@@](O)(C(C)=NOCC(=O)*)C[C@@H]3O[C@H]1C[C@H](N)[C@H](O)[C@H](C)O1

Key:
[1] = lysosome-homogenate prepared from rat liver, in 0.2 M NaOAc solution (pH = 5.03); conditions: 37 °C, up to 72 h
[2] = test system: EBC-1 cells; type: cell-based, human
Description: (§1) EBC-1 and Colo-205 model cells have weak/negligible adherent properties, and A2058 cells could not produce constant cell index values. Therefore, a colorimetric assay (alamarBlue-assay) was chosen instead of the xCELLigence system to investigate the viability of these model cells treated with the conjugates. Due to the growth characteristics of NHDF cells, alamarBlue-assay was performed also on this cell line.
(§2) The protocol for the alamarBlue-assay was similar to the method which was published earlier, with some minor modifications. Briefly, the cell seeding occurred on 96-well cell culture plates (Sarstedt AG, Nümbrecht, Germany) at 10^4 cells/well concentration. After a 24 h long culturing period, the treatment was carried out with the conjugates at 10^−4, 10^−5 and 10^−6 M final concentrations for 24, 48 and 72 h. In the next steps, the alamarBlue reagent (0.15 mg/mL, Sigma-Aldrich) dissolved in phosphate-buffered saline (PBS; pH = 7.2), was added to the wells. After 6 h incubation with the reagent, the fluorescence intensity of the samples was obtained by an LS-50B Luminescence Spectrometer (Perkin Elmer Ltd., Buckinghamshire, UK) or a Fluoroskan^TM FL Microplate Fluorometer and Luminometer (Thermo Scientific, Waltham, MA, USA) by using the following settings: λex = 560 nm and λem = 590 nm.
(§3) Three parallels were performed per treatment group. In the case of controls, an equivalent volume of cell culture media was added to the cell. Fluorescence intensities of the samples treated with various concentrations of conjugates were expressed as a percentage of the fluorescence of control.

[3] = test system: A2058 cells; type: cell-based, human
Description: as §1, §2, §3

[4] = test system: Colo-205 cells; type: cell-based, human
Description: as §1, §2, §3

[5] = test system: PANC-1 cells; experiment: cells; type: cell-based, human
Description: This measurement is based on the registration of electrical resistance (impedance, Z) in alternating current (AC) field. The living cells transplanted to the gold measuring electrodes are physically insulated by phospholipid bilayer that covers them. This instrumentally measurable property changes (decreases) in response to cellular cytotoxic agents. Our measurements were performed on xCELLigence single plate (ACEA Biosciences, San Diego, CA, USA) dedicated for impedimetric analysis of cellular samples at 37 °C and 5% CO2.
During the initial phase of the experiments—the baseline recording—a special 96-well cell culture plate, E-plate (ACEA Biosciences), equipped with measuring electrodes, was pretreated with freshly prepared cell culture medium (for 60 min; sampling frequency: 1 min). Subsequently, PANC-1 cells were plated at a cell density of 10^4 cells/well. During the 24 h incubation, the cells evenly covered the electrodes at the bottom of the wells of the E-plate. The resulting confluent cell cultures were then treated with the test substances at the following final concentrations: 10^−6, 10^−5, 10^−4 M. Total treatment duration was 72 h and the sampling rate was 1 min (0–24 h); and then 15 min (48–72 h). In our measurements, three replicates were used, the control was the drug-free medium. […] The CI results were analyzed with xCELLigence RTCA 2.0 software and Origin Pro 8.0 software.

[6] = Lysosomal degradation of conjugates by LC-MS; type: in vitro ADME; conditions: rat liver lysosome homogenate, 0.2 M NaOAc pH 5.03, 0.025 μg/μL conjugate, 37 °C
Description: For the stability and metabolism studies of the conjugates, liquid chromatography–mass spectrometry (LC-MS) analyses were performed on a Q ExactiveTM Focus, high resolution and high mass accuracy, hybrid quadrupole-orbitrap mass spectrometer (Thermo Fisher Scientific, Bremen, Germany) using on-line UHPLC coupling. UHPLC separation was performed on a Dionex 3000 UHPLC system using a Supelco Ascentis C18 column (2.1 × 150 mm, 3 µm). Linear gradient elution (0 min 2% B, 1 min 2% B, 17 min 90% B) with eluent A (0.1% HCOOH in water, v/v) and eluent B (0.1% HCOOH in acetonitrile/water, 80:20, v/v) was used at a flow rate of 0.2 mL/min at 40 °C. High-resolution mass spectra were acquired in the 200–1600 m/z range. LC-MS data were analyzed by XcaliburTM software (Thermo Fisher Scientific) and with Origin Pro 8 (OriginLab Corp., Northampton, MA, USA).
Conjugates were dissolved in distilled water in 2.5 μg/μL concentration followed by dilution with 0.2 M NaOAc solution (pH = 5.03) to 0.025 μg/μL. The lysosome-homogenate was prepared from rat liver and contained proteins in 16.6 μg/μL concentration. An aliquot (20 μL) of this stock solution was further diluted with […] 0.2 M NaOAc solution, therefore the final protein concentration was 0.83 μg/μL. To prepare the reaction mixture, 15 μL (0.83 μg/μL) lysosome homogenate was added to 500 μL (0.025 μg/μL) conjugate solution. Furthermore, a control reaction mixture was always prepared which contained 500 μL conjugate solution and 15 μL NaOAc solution only. The solutions were stirred on 600 rpm at 37 °C and samples (50 μL) were taken out at 0 min, 5 min, 15 min, 30 min, 1 h, 2 h, 6 h, 24 h, and 72 h. The enzymatic activity was quenched by adding 5 μL formic acid to the samples. After this procedure, samples were frozen immediately at −25 °C. Control samples were taken at 0 min, 15 min, 1 h, 6 h, 24 h and 72 h. Composition of the samples was determined by HPLC-MS as described above.

[7] = alamarBlue fluorescence normalized to control wells, 10^-5 M, mean ± SD, n=3

Dau=Aoa-GFLG-KSKAAKN-OH
fragment found [1]: Dau=Aoa-GFL-OH; also recorded: Dau=Aoa-GFLGK-OH; also recorded: Dau=Aoa-GFLGKSK-OH, first_seen, 0 min; also recorded: Dau=Aoa-GFLGKSKAA-OH, first_seen, 0 min; also recorded: Dau=Aoa-G-OH, 30 min; also recorded: Dau=Aoa-GF-OH, major, 30 min

Dau=Aoa-GFLG-K(Dau=Aoa-GFLG)SKAAKN-OH
fragment found [1]: Dau=Aoa-G-OH, minor; also recorded: Dau=Aoa-GF-OH; also recorded: Dau=Aoa-GFL-OH; also recorded: H-K(Dau=Aoa-GFLG)SK-OH; also recorded: H-K(Dau=Aoa-GFLG)SKAA-OH; also recorded: H-K(Dau=Aoa-GFLG)SKAAKN-OH

COc1cccc2c1C(=O)c1c(O)c3c(c(O)c1C2=O)C[C@@](O)(C(C)=NOCC(=O)N[C@@H](CO)C(=O)N[C@@H](CCCCN)C(=O)N[C@@H](C)C(=O)N[C@@H](C)C(=O)N[C@@H](CCCCN)C(=O)N[C@@H](CC(N)=O)C(=O)O)C[C@@H]3O[C@H]1C[C@H](N)[C@H](O)[C@H](C)O1 [conjugate 1, Dau=Aoa-SKAAKN-OH] ({Daunorubicin(13-NOCH2CO)}-SKAAKN-OH)
Viability (%) at 10-5 M concentration, after 72 h incubation, EBC-1 ([2]; 1e-5 M): 77.8 ± 1.0% | Viability (%) at 10-5 M concentration, after 72 h incubation, A2058 ([3]; 1e-5 M): 61.5 ± 2.7% | Viability (%) at 10-5 M concentration, after 72 h incubation, Colo-205 ([4]; 1e-5 M): 50.7 ± 1.6% | Viability after 24 h treatment at 10^−4 M (initial CI increase) ([5]; 24 h, 1e-4 M): 224.1 ± 18.73% | Viability (%) at 10^−5 M Concentration, After 72 h Incubation ([5]; 1e-5 M): 112.5 ± 5.1%

Dau=Aoa-SKAAKN-OH
fragment found [1]: Dau=Aoa-S-OH, 0 min; also recorded: Dau=Aoa-SK-OH, 0 min

COc1cccc2c1C(=O)c1c(O)c3c(c(O)c1C2=O)C[C@@](O)(C(C)=NOCC(=O)NCC(=O)N[C@@H](Cc1ccccc1)C(=O)N[C@@H](CC(C)C)C(=O)NCC(=O)N[C@@H](CCCCN)C(=O)N[C@@H](CO)C(=O)N[C@@H](CCCCN)C(=O)N[C@@H](C)C(=O)N[C@@H](C)C(=O)N[C@@H](CCCCN)C(=O)N[C@@H](CC(N)=O)C(=O)O)C[C@@H]3O[C@H]1C[C@H](N)[C@H](O)[C@H](C)O1 [conjugate 3, Dau=Aoa-GFLG-KSKAAKN-OH] ({Daunorubicin(13-NOCH2CO)}-GFLGKSKAAKN-OH)
Viability (%) at 10-5 M concentration, after 72 h incubation, EBC-1 [2, 7]: 76.2 ± 13.7% | Viability (%) at 10-5 M concentration, after 72 h incubation, A2058 [3, 7]: 79.4 ± 17.6% | Viability (%) at 10-5 M concentration, after 72 h incubation, Colo-205 [4, 7]: 59.3 ± 3.6% | Time to complete lysosomal degradation ([6]; sampling up to 72 h): ≤ 1 h | Viability (%) at 10^−5 M Concentration, After 72 h Incubation ([5]; PANC-1, impedimetry, cell index normalized to control wells, 10^−5 M, mean ± SD, n = 3): 105.1 ± 1.9%

COc1cccc2c1C(=O)c1c(O)c3c(c(O)c1C2=O)C[C@@](O)(C(C)=NOCC(=O)N[C@@H](CCCCN)C(=O)N[C@@H](CO)C(=O)N[C@@H](CCCCN)C(=O)N[C@@H](C)C(=O)N[C@@H](C)C(=O)N[C@@H](CCCCN)C(=O)N[C@@H](CC(N)=O)C(=O)O)C[C@@H]3O[C@H]1C[C@H](N)[C@H](O)[C@H](C)O1 [conjugate 2, Dau=Aoa-KSKAAKN-OH] ({Daunorubicin(13-NOCH2CO)}-KSKAAKN-OH)
Speed of lysosomal degradation (in words) [6]: very fast

Dau=Aoa-KSKAAKN-OH
fragment found [1]: Dau=Aoa-K-OH, minor, 30 min; also recorded: Dau=Aoa-KS-OH, 15 min; also recorded: Dau=Aoa-KSK-OH

COc1cccc2c1C(=O)c1c(O)c3c(c(O)c1C2=O)C[C@@](O)(C(C)=NOCC(=O)N[C@@H](CO)C(=O)N[C@@H](CCCCN)C(=O)N[C@@H](C)C(=O)N[C@@H](C)C(=O)N[C@@H](CCCCN)C(=O)N[C@@H](CC(N)=O)C(=O)O)C[C@@H]3O[C@H]1C[C@H](N)[C@H](O)[C@H](C)O1 [conjugates 1] ({Daunorubicin(13-NOCH2CO)}-SKAAKN-OH)
Speed of lysosomal degradation (in words) [6]: very fast
